Assay results taken from US20230405003A1, “APPLICATION OF THYMIDINE DERIVATIVE IN PREPARATION OF DRUGS” (ONQUALITY PHARMACEUTICALS CHINA LTD., priority 2020, published 2023).
Read-outs that look alike come from different tables or passages of the source.

What was measured:
[1] = system: hand-foot syndrome caused by capecitabine in SD rats; test: Rat model of hand-foot syndrome caused by capecitabine, gel application; format: in vivo; details: rats, capecitabine 4000 mg/kg once daily, 40 days; for inhibition in vivo at 3 % / inhibition in vivo at 1 % / inhibition in vivo at 5 % / inhibition in vivo at 0.1 % / inhibition in vivo at 0.5 %: Rattus norvegicus, topical, 960 h
Experimental: A rat animal model was established. 6-week aged female SD rats were administered with capecitabine by daily gavage. The degree of hand-foot syndrome in paws is similar, and there was no difference between the left and right paws. Similar to the human body, rats developed hand-foot syndrome after oral administration of capecitabine. The causes of the two are the same, and the disorder is also very similar. Therefore, rats are very good animal models for simulating the hand-foot syndrome caused by capecitabine.
After SD rats were fed and adapted for one week (about 200 g), the rats were divided into groups, with 10 rats in each group. Then, the rats were subject to gavage administration. Capecitabine was dissolved in a 1:1 mixed solution of castor oil and ethanol and diluted for three times with PBS buffer. After gavage, the rats were fixed with a fixed cylinder, and a gel of thymidine derivative (or a compounded gel of thymidine derivative and uridine derivative) was applied to double hind paws (about 1 cm*3 cm) of the rats in group of administration (the types and concentrations are shown in Table 4), and a blank gel was applied to the group of blank (as a blank control). After approximately 4 hours of application, the rats were released after 4 hours, wiped with clean water to remove any residual drug at the application site, and allowed back to the cage. The thymidine derivative gel (or the compounded gel of thymidine derivative and uridine derivative) was administered with gavage every day. The gavage and application tests are repeated daily until the group of blank has developed obvious hand-foot syndrome.
Table 4 lists the combinations of animal experiments of capecitabine and the thymidine derivative gel (or the compounded gel of thymidine derivative and uridine derivative) and the corresponding experimental results (wherein, the data in the column of control rate=the occurrence rate of hand-foot syndrome in group of blank—the occurrence rate of hand-foot syndrome in group of administration). […]

[2] = system: hand-foot syndrome caused by capecitabine in Balb/c mice; test: Mouse model of hand-foot syndrome caused by capecitabine, gel application or oral administration; format: in vivo; details: capecitabine 1000 mg/kg once daily; for inhibition in vivo at 300 mg/kg / inhibition in vivo at 250 mg/kg / inhibition in vivo at 5 % / inhibition in vivo at 1 % / inhibition in vivo at 3 % / inhibition in vivo at 200 mg/kg: Mus musculus; for inhibition in vivo at 300 mg/kg / inhibition in vivo at 250 mg/kg / inhibition in vivo at 200 mg/kg: 192 h, 8 days; for inhibition in vivo at 300 mg/kg: oral 300 mpk twice per day; for inhibition in vivo at 250 mg/kg: oral 250 mpk twice per day; for inhibition in vivo at 5 % / inhibition in vivo at 1 % / inhibition in vivo at 3 %: topical, 360 h; for inhibition in vivo at 5 %: gel 5 wt%; for inhibition in vivo at 5 % / inhibition in vivo at 1 % / inhibition in vivo at 3 % / Control Rate Forepaws / Control Rate Hindpaws: 15 days; for inhibition in vivo at 200 mg/kg: oral 200 mpk twice per day
Experimental: A mouse animal model was established. 6-week aged male Balb/c mice were administered with capecitabine by daily gavage. After a few days, mice's paws developed hand-foot syndrome symptoms (similar to the results of the rat model, such as, in FIG. 13). Similar to the human body, mice developed hand-foot syndrome in the forepaws and hind paws after oral administration of capecitabine. The causes of the two are the same, and the disorder is also very similar. Therefore, mice are very good animal models for simulating the hand-foot syndrome caused by capecitabine.
After Balb/c mice were fed and adapted for one week (about 20 g), the mice were divided into groups, with 10 mice in each group. Then, the mice were subject to gavage administration. Capecitabine was dissolved in normal saline with pH=8, and the gavage dose was not greater than 0.3 mL at each time. After gavage, the blank gel was applied to the forepaws and the hind paws (about 4*0.5 cm*0.5 cm) in group of blank gel, and gels containing different drugs were applied to the forepaws and the hind paws (about 4*0.5 cm*0.5 cm) in group of administration. After application, the mice were fixed in Elizabethan collar for 4 hours. After 4 hours, the mice were released, wiped with clean water to remove any residual drug at the application site, and allowed back to the cage. The gavage and application tests are repeated daily until the group of blank has developed obvious hand-foot syndrome. […] Additionally, the thymidine derivative and the combination of thymidine derivative and uridine derivative were orally administered for observing the relief of the hand-foot syndrome. In examples 41-48, thymidine derivative and/or uridine derivative were/was applied, and in examples 49-52, thymidine derivative and/or uridine derivative were/was administered orally.
Table 5 lists the combinations of animal experiments of capecitabine and thymidine derivative (or a combination of thymidine derivative and uridine derivative) and the corresponding experimental results (wherein the data in the column of control rate=the occurrence rate of hand-foot syndrome in group of blank—the occurrence rate of hand-foot syndrome in group of administration).
The effect of thymidine derivative or a combination of thymidine derivative and uridine derivative on a mouse model with chemotherapeutic drug (capecitabine)-induced hand-foot syndrome was tested according to the method in Examples 41-52. Wherein, the drugs were administered transdermally for Examples 119-120 and orally for Examples 121-123.
The test thymidine derivative or the combination of thymidine derivative and uridine derivative, as well as the final concentration of the test compounds were shown in Table 9. Table 9 lists the combinations of animal experiments of capecitabine and the thymidine derivative gel (or a compounded gel of thymidine derivative and uridine derivative) and the corresponding experimental results (wherein the data in the column of control rate=the occurrence rate of hand-foot syndrome in Group of blank—the occurrence rate of hand-foot syndrome in Group of administration).

[3] = gel 3 wt%, read-out: Control Rate Forepaws
[4] = gel 3 wt%, read-out: Control Rate Hindpaws
[5] = read-out: Control Rate Forepaws
[6] = read-out: Control Rate Hindpaws
[7] = gel 1 wt%, read-out: Control Rate Forepaws
[8] = gel 1 wt%, read-out: Control Rate Hindpaws
[9] = gel 5 wt%, read-out: Control Rate Forepaws
[10] = gel 5 wt%, read-out: Control Rate Hindpaws

`Cc1ccc(C(=O)c2ccc(CC(=O)OC[C@H]3O[C@@H](n4cc(C)c(=O)[nH]c4=O)C[C@@H]3O)n2C)cc1` [T36] was tested, and the “Control Rate Forepaws” value ([1]; gel 1 wt%) was 28.57%, the “Control Rate Hindpaws” value ([1]; gel 1 wt%) was 42.86% and the “Control Rate Forepaws” value ([1]; gel 3 wt%) was 44.44%. The “Control Rate Hindpaws” value ([1]; gel 3 wt%) was 44.44%.

Compound `Cc1cn([C@H]2C[C@H](O)[C@@H](COC(=O)[C@H](C)c3ccc(CC(C)C)cc3)O2)c(=O)[nH]c1=O` [T32] has an inhibition in vivo at 3 % [1, 3] of 37.5%, an inhibition in vivo at 3 % [1, 4] of 62.5% and an inhibition in vivo at 300 mg/kg [2, 5] of 71.4%. For the same compound, the inhibition in vivo at 300 mg/kg [2, 6] was 57.1%.

`Cc1ccc(C(=O)c2ccc(CC(=O)O[C@H]3C[C@H](n4cc(C)c(=O)[nH]c4=O)O[C@@H]3CO)n2C)cc1` [T45] was tested, and the inhibition in vivo at 1 % [1, 7] was 25%, the inhibition in vivo at 1 % [1, 8] was 37.5% and the inhibition in vivo at 5 % [1, 9] was 55.6%. It also gave an inhibition in vivo at 5 % [1, 10] of 77.8%, an inhibition in vivo at 250 mg/kg [2, 5] of 57.1% and an inhibition in vivo at 250 mg/kg [2, 6] of 42.9%.

Work on `Cc1cn([C@H]2C[C@H](OC(=O)C(C)c3cccc(C(=O)c4ccccc4)c3)[C@@H](CO)O2)c(=O)[nH]c1=O` (some centres unmarked) [T50] yielded an inhibition in vivo at 3 % [1, 3] of 71.4% and an inhibition in vivo at 3 % [1, 4] of 57.1%.

Compound `COc1ccc2cc([C@H](C)C(=O)OC[C@H]3O[C@@H](n4cc(C)c(=O)[nH]c4=O)C[C@@H]3O)ccc2c1` [T25] has an inhibition in vivo at 0.1 % ([1]; gel 0.10 wt%, read-out: Control Rate Forepaws) of 22.2%, an inhibition in vivo at 0.1 % ([1]; gel 0.10 wt%, read-out: Control Rate Hindpaws) of 33.3% and an inhibition in vivo at 0.5 % ([1]; gel 0.50 wt%, read-out: Control Rate Forepaws) of 22.2%. The inhibition in vivo at 0.5 % ([1]; gel 0.50 wt%, read-out: Control Rate Hindpaws) was 44.4%, the inhibition in vivo at 1 % [1, 7] was 37.5% and the inhibition in vivo at 1 % [1, 8] was 50%. The inhibition in vivo at 3 % [1, 3] was 62.5%, the inhibition in vivo at 3 % [1, 4] was 75% and the inhibition in vivo at 5 % [1, 9] was 57.1%. It also gave an inhibition in vivo at 5 % [1, 10] of 71.4%, an inhibition in vivo at 5 % [2, 5] of 44.4% and an inhibition in vivo at 5 % [2, 6] of 66.7%. It also gave an inhibition in vivo at 1 % ([2]; transdermal 1% (wt %), read-out: Control Rate Forepaws) of 22.2%, an inhibition in vivo at 1 % ([2]; transdermal 1% (wt %), read-out: Control Rate Hindpaws) of 44.4% and an inhibition in vivo at 3 % ([2]; transdermal 3% (wt %), read-out: Control Rate Forepaws) of 25%. For the same compound, the inhibition in vivo at 3 % ([2]; transdermal 3% (wt %), read-out: Control Rate Hindpaws) was 37.5%.

For `Cc1cn([C@H]2C[C@H](O)[C@@H](COC(=O)C(C)c3cccc(Oc4ccccc4)c3)O2)c(=O)[nH]c1=O` (stereo partly drawn) [T27, ((2R,3S, 5R)-3-hydroxyl-5-(5-methyl-2,4-dioxy-3,4-dihydropyrimidin-1(2H)-yl)tetrahydrofuran-2-yl)2-(3-phenoxyphenyl)propionate Methyl], the “Control Rate Forepaws” value ([1]; gel 0.10 wt%) was 22.22%, the “Control Rate Hindpaws” value ([1]; gel 0.10 wt%) was 44.44% and the “Control Rate Forepaws” value ([1]; gel 0.50 wt%) was 33.33%. For the same compound, the “Control Rate Hindpaws” value ([1]; gel 0.50 wt%) was 33.33%, the “Control Rate Forepaws” value ([1]; gel 1 wt%) was 25% and the “Control Rate Hindpaws” value ([1]; gel 1 wt%) was 50%. For the same compound, the “Control Rate Forepaws” value ([1]; gel 3 wt%) was 57.14%, the “Control Rate Hindpaws” value ([1]; gel 3 wt%) was 71.43% and the “Control Rate Forepaws” value ([1]; gel 5 wt%) was 50%. The “Control Rate Hindpaws” value ([1]; gel 5 wt%) was 75.00%, the “Control Rate Forepaws” value ([2]; transdermal 1% (wt %)) was 50% and the “Control Rate Hindpaws” value ([2]; transdermal 1% (wt %)) was 62.50%. For the same compound, the “Control Rate Forepaws” value ([2]; transdermal 3% (wt %)) was 42.86% and the “Control Rate Hindpaws” value ([2]; transdermal 3% (wt %)) was 71.43%.

`CC1=C(CC(=O)OC[C@H]2O[C@@H](n3cc(C)c(=O)[nH]c3=O)C[C@@H]2O)c2cc(F)ccc2/C1=C\c1ccc([S+](C)[O-])cc1` (some centres unmarked) [T40] gave an inhibition in vivo at 3 % [1, 3] of 44.4%, an inhibition in vivo at 3 % [1, 4] of 66.7% and an inhibition in vivo at 200 mg/kg [2, 5] of 75%. The inhibition in vivo at 200 mg/kg [2, 6] was 88%.
